# Experimental data published in patent US5034419A, “N-cycloalkylalkylamines, process for their preparation, their use as medicament and their synthesis intermediates” (L'Oreal, priority 1988, dated 1991).
# Where two headings read alike, the source gives them in different places.
# Legend:
# [1] = biological target: T1, kappa receptors (Cavia porcellus, UniProt P41144); test: in vitro affinity for kappa receptors; format: binding
# T1 construct: from tissue
# Protocol: (§1) The "in vitro" study of the affinity of the compounds according to the invention for the three opium receptors is carried out in accordance with the technique described by F. Roman and coll. in J. Pharm. Pharmacol. 1987, 39, p. 404-407 and the study of the affinity for PCP receptors is carried out in accordance with the technique described by Vignon J. and coll. in "Brain Res." 1983; 280, p. 194-7 and 1986; 378, p. 133-41.
# (§2) The results shown in table 3 are, for each receptor studied, expressed in IC50, which are the nanomolar concentrations of the dissolved products which are capable of inhibiting 50% of the bonds between the specific radioactive ligand to the receptor under consideration.
# [2] = test system: animals; settings: in vivo; cited from earlier work
# [3] = biological target: T2, delta receptors (Cavia porcellus, UniProt A0A286XTF2); test: in vitro affinity for delta receptors; format: binding; settings: Table 3; read-out: delta rec. IC50
# T2 construct: from tissue
# Protocol: as §1, §2
# [4] = biological target: T3, sigma receptors (Cavia porcellus, UniProt Q60492); test: in vitro affinity for sigma receptors, competition with (+)[3H]SKF10,047; format: binding, guinea-pig (cerebral membranes)
# T3 construct: sigma receptors of the cerebral membranes of the guinea-pig used in this study; from tissue; host or cells: guinea-pig cerebral membranes
# Protocol: The test is carried out by incubating solutions of suitable concentrations of the products with standard samples of membranes and determining, after filtration, the residual radioactivity of the solution.
# [5] = biological target: PCP receptors; test: in vitro affinity for phencyclidine (PCP) receptors; format: binding; settings: Table 3; read-out: PCP rec. IC50
# Protocol: as §1, §2
# [6] = biological target: mu receptors; test: in vitro affinity for mu receptors; format: binding; settings: for IC50: Table 3, read-out: mu rec. IC50
# Protocol: as §1, §2
# [7] = alkaline duodenal secretion in anaesthetized rats; format: in vivo, male rats; settings: 1 mg/kg intravenously; for Increase AUC 1 2 h: AUC of alkaline flow rate 1 h to 2 h compared with control animals; for Increase in secretion: maximum increase, anaesthetized rats
# Protocol: The activity of the products on alkaline duodenal secretion in rats is studied in accordance with a technique described by FLEMSTROM and coll. Gastroenterology, 1983, 84, p. 787-794.
# The test comprises determination every 10 minutes, for 3 hours and in situ, of the alkaline secretion of a duodenal segment 12 mm in length, with no Brunner glands and situated 2 cm from the pylorus.
# The study is performed on male rats of about 350 g previously anaesthetized, in which the duodenal segment chosen in cannulated by 2 glass tubes in accordance with the technique described by the author, and in which a luminal perfusate consisting of 5 ml isotonic NaCl solution is maintained at 37° C.
# The variations in the intraluminal alkaline secretion are measured by pHmetry every 10 minutes by means of an automated system maintaining a constant pH of 7.4 by in situ addition of a 0.04N solution of hydrochloric acid. Fifty minutes after the start of the experiment, the products under investigation are administered intravenously or intraarterially in an amount of 1 mg/kg and the volume of hydrochloric acid introduced, which is a reflection of the in situ increase in alkaline secretion, is measured every 10 minutes for 3 hours with respect to the start of the experiment, that is to say for 130 minutes after injection of the product under investigation.
# The following are determined for each product:
# a) The maximum increase in secretion in micro-eq/cm/h under the action of the drug, taking into account the basal secretion of the same animals observed for 50 minutes before administration of the product.
# The results are shown in table 6, which follows, for the products (I) according to the invention administered intravenously in an amount of 1 mg/kg.
# [8] = inhibition of gastro-duodenal ulcers caused by cysteamine; format: in vivo, Wistar female rats; settings: Rattus norvegicus; cysteamine hydrochloride 400 mg/kg s.c.; products orally or subcutaneously; read-out: ED50 - ulceration scores
# Protocol: This activity is set in relation to the capacity of the products to cause an increase in the alkaline secretion in the duodenum in anaesthetized animals.
# In this test, groups of 6 Wistar female rats with an average weight of 200 g receive a subcutaneous injection of cysteamine hydrochloride in an amount of 400 mg/kg. The products under investigation are administered orally or subcutaneously 1 h or, respectively, 30 minutes before the ulcerogenic agent.
# Ten hours thereafter, the rats are sacrificed by elongation and their stomach and duodenum are removed, rinsed with physiological solution and mounted on a card. The presence of ulcers in the antro-pyloric-duodenal zone is examined and their area, expressed in mm^2, is evaluated by multiplying the two main perpendicular axis of the lesion. Statistical analysis of the results is performed with the aid of the Student test for the ulcerated areas in comparison with a control group receiving only excipient.
# The results presented in table 5 are expressed in ED50 of ulceration scores, which are the effective doses, expressed in mg/kg product, which cause inhibition of 50% of the ulcerations caused by cysteamine.
# [9] = antagonism of amnesia caused by scopolamine, passive avoidance test; format: in vivo, mice; settings: for % antagonism of the amnesia: 0.25 mg/kg orally, scopolamine 1 mg/kg i.p. 30 minutes later, latency after 24 hours; for antagonism of amnesia caused by scopolamine (in words): mouse, in vivo
# Protocol: The animal is introduced into the illuminated compartment, and when it moves to the dark compartment it receives an electric current (0.35 mA) through the base until it returns to the illuminated compartment, from where it is then removed.
# After 24 hours, the operation is repeated. The mouse is replaced in the apparatus and it avoids entering into the dark compartment. The time which elapses before passage into this compartment is recorded; under the conditions of the experiment, the efficacy of the compounds under investigation in antagonizing the amnesic effect of scopolamine, which is administered intraperitoneally in an amount of 1 mg/kg 30 minutes before the animal is first introduced into the apparatus, can be evaluated.
# In control mice which have received only scopolamine, the time elapsed before passage after 24 hours is remarkably lower than that observed in the untreated animals.
# The study of the products according to the invention by this method is performed on groups of 18 mice and the products are administered orally on the first day in an amount of 0.25 mg/kg 30 minutes before administration of scopolamine i.p.
# [10] = protection from convulsions induced by picrotoxin in mice; format: in vivo, "Swiss" male mice; settings: 50 mg/kg i.p.; picrotoxin 24 mg/kg i.p. 30 minutes later; * p<0.05, ** p<0.01, *** p<0.001
# Protocol: b) The psychotropic properties of the compounds were determined by the protection from convulsions induced by picrotoxin in mice, which was realized in accordance with a method derived from that of Krall and coll., "Epilepsia", 1978, 19, p. 409-428.
# The administration of picrotoxin to animals causes a convulsive attack characterized by a myoclonic extension syndrome followed by extension of the limbs leading to death of the animals. Certain substances, in particular those which act on the GABA/benzodiazepine/Cl-ionophor complex, provide protection of the animals from these convulsive attacks.
# In practice, the study is carried out on groups of 10 "Swiss" male mice weighing about 20 g, to which the product under investigation is administered in aqueous solution either intraperitoneally (i.p.) or orally (p.o.).
# An intraperitoneal injection of a solution of picrotoxin in an amount of 24 mg/kg in a volume of 0.2 ml per animal is then performed, either 30 minutes after intraperitoneal administration of the product or 60 minutes after oral administration of the product, the dose of the product injected in this way causing a clonic attack which leads to death of the untreated animals. Under the conditions of the test, suppression of the tonic extension phase is found in the animals treated.
# The results are expressed:
# either as the percentage of animals protected from this phase under the action of 50 mg/kg compound under investigation administered i.p. or 100 mg/kg p.o.,
# or in the ED50 for each of these groups, which is the effective dose of the compound under investigation expressed in mg/kg which protects 50% of animals from this extension phase, the significance value of the results generally being indicated in the following manner: […]
# [11] = Table 2, (+)[3H]SKF10,047, guinea-pig cerebral membranes, read-out: IC50 (bonding affinity to sigma receptors)
# [12] = Table 3, read-out: kappa rec. IC50
# T2 sequence (A0A286XTF2 1-366): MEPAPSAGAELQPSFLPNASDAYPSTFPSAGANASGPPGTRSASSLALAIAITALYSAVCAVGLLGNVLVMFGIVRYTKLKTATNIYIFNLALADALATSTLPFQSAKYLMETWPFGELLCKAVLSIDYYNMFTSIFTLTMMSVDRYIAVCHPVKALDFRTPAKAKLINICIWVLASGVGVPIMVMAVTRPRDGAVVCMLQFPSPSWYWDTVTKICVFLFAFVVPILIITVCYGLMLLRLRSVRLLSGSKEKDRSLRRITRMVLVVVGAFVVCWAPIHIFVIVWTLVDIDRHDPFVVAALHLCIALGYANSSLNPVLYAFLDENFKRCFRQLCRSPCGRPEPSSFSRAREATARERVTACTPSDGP
# T3 sequence (Q60492 whole entry): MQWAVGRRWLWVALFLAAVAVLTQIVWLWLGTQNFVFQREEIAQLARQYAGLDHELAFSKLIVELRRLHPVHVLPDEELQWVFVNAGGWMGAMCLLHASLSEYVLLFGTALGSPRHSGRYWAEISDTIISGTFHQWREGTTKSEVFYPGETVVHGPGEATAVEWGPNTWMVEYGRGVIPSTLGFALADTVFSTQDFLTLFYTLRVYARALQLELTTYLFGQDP
# T1 sequence (P41144 whole entry): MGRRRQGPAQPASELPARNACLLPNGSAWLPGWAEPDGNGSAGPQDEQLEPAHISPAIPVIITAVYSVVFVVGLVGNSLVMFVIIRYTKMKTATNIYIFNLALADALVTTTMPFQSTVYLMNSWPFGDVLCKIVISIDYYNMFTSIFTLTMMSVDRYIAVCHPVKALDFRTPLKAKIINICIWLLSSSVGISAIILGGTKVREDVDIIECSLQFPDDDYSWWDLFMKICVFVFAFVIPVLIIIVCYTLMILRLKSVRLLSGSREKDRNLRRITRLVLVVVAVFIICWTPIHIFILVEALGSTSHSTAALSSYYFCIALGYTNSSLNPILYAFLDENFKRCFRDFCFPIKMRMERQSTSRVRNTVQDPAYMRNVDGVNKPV
Structure (SMILES),"IC50 ([1]; kappa rec. IC50, Table 3)",toxicity on animals (in words) [2],IC50 [3],"IC50 [4, 11]",IC50 [5],"IC50 [1, 12]",IC50 [6],mu rec. relative value of the IC50 ([6]; relative to IC50 of sigma affinity = 1),Increase AUC 1 2 h [7],Increase in secretion [7],ED50 [8],% antagonism of the amnesia [9],"IC50 ([4]; IC50 (bonding affinity to sigma receptors), Table 2, (+)[3H]SKF10,047, guinea-pig cerebral membranes)","IC50 ([4]; sigma rec. IC50, Table 3)",i.p.: % prot. (inhibition of convulsions induced by picrotoxin) [10],antagonism of amnesia caused by scopolamine (in words) [9]
"Cc1ccccc1NC(=N)Nc1ccccc1C [DTG, ditolylguanidine, reference compound]",6.49 µM,excessive toxicity,33.2 µM,,,,,,,,,,,,,
"CCC(CC=Cc1ccccc1)(c1ccccc1)N(C)CC1CCCCC1 (stereo not drawn) [Example 7, α-Cinnamyl-N-cyclohexylmethyl-α-ethyl-N-methyl-benzylamine]",,,51.8 µM,32 nM,50.8 µM,72.8 µM,> 100 µM,> 1000,52.8,6.0 micro-eq/cm/h,10.5 mg/kg,56%,,,,
"CCC(CC=Cc1ccccc1)(c1ccccc1)N(C)CC1CC1 (stereo not drawn) [Example 9, α-Cinnamyl-N-cyclopropylmethyl-α-ethyl-N-methyl-benzylamine]",,,83.8 µM,,3.67 µM,6.2 µM,15.8 µM,,97.6,10.0 micro-eq/cm/h,26.2 mg/kg,76%,24 nM,24 nM,90%,conclusive of an activity of the products according to the invention at a low dose
"CCC(CC=Cc1ccccc1)(c1ccccc1)N(C)CC1CCC1 (stereo not drawn) [Example 12, α-Cinnamyl-N-cyclobutylmethyl-α-ethyl-N-methyl-benzylamine]",,,85.6 µM,50 nM,,6.28 µM,7.18 µM,,41.6,7.0 micro-eq/cm/h,12.2 mg/kg,98%,,,,conclusive of an activity of the products according to the invention at a low dose
"CCC(CC=Cc1ccccc1)(c1cccs1)N(C)CC1CC1 (stereo not drawn) [Example 21, α-Cinnamyl-N-cyclopropylmethyl-α-ethyl-N-methyl-2-thiophenemethylamine]",,,7.39 µM,95 nM,6.28 µM,1.2 µM,1.54 µM,,,,48.2 mg/kg,,,,50%,
